Data taken from patent US20170190671A1, “BIS(ARYL)CATECHOL DERIVATIVES AS HERBICIDES” (E I DU PONT DE NEMOURS AND COMPANY, priority 2014, published 2017).

Legend:
Type in all cases: in vivo
[1] = test system: soybean (Glycine max); test: Test C preemergence; conditions: Glycine max, pre-emergence, preemergence, scale 0 to 100, read-out: Plant response rating, Soybean
Outline: (§1)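 After preemergence treatment of seeds in loam-sand soil or foliar treatment at the 1- to 4-leaf stage of plants in peat/vermiculite medium, pots were kept 13-15 days in the greenhouse. Each was then scored visually, 0 meaning no effect and 100 complete control.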

[2] = test system: johnsongrass (Sorghum halepense); test: Test C preemergence; conditions: Sorghum halepense, pre-emergence, 336 h, preemergence, scale 0 to 100, read-out: Plant response rating, Johnsongrass
Outline: as §1

[3] = test system: pigweed (Amaranthus retroflexus); test: Test C preemergence; conditions: Amaranthus retroflexus, pre-emergence, 336 h, preemergence, scale 0 to 100, read-out: Plant response rating, Pigweed
Outline: as §1

[4] = test system: Italian ryegrass (Lolium multiflorum); test: Test C preemergence; conditions: Lolium multiflorum, pre-emergence, 336 h, preemergence, scale 0 to 100, read-out: Plant response rating, Ryegrass, Italian
Outline: as §1

[5] = test system: giant foxtail (Setaria faberii); test: Test C preemergence; conditions: Setaria faberi, pre-emergence, 336 h, preemergence, scale 0 to 100, read-out: Plant response rating, Foxtail, Giant
Outline: as §1

[6] = test system: ragweed (common ragweed, Ambrosia elatior); test: Test C preemergence; conditions: Ambrosia artemisiifolia, pre-emergence, 336 h, preemergence, scale 0 to 100, read-out: Plant response rating, Ragweed
Outline: as §1

[7] = test system: corn (Zea mays); test: Test C preemergence; conditions: Zea mays, pre-emergence, 336 h, preemergence, scale 0 to 100
Outline: as §1

[8] = test system: winter wheat (Triticum aestivum); test: Test C preemergence; conditions: Triticum aestivum, pre-emergence, 336 h, preemergence, scale 0 to 100, read-out: Plant response rating, Wheat
Outline: as §1

[9] = test system: large (Lg) crabgrass (Digitaria sanguinalis); test: Test C preemergence; conditions: Digitaria sanguinalis, pre-emergence, 336 h, preemergence, scale 0 to 100, read-out: Plant response rating, Crabgrass, Large
Outline: as §1

[10] = test system: morningglory (Ipomoea coccinea); test: Test C preemergence; conditions: Ipomoea, pre-emergence, 336 h, preemergence, scale 0 to 100, read-out: Plant response rating, Morningglory
Outline: as §1

[11] = test system: oilseed rape (Brassica napus); test: Test C preemergence; conditions: Brassica napus, pre-emergence, preemergence, scale 0 to 100, read-out: Plant response rating, Oilseed Rape
Outline: as §1

[12] = test system: yellow nutsedge (Cyperus esculentus); test: Test C preemergence; conditions: Cyperus, pre-emergence, 336 h, preemergence, scale 0 to 100, read-out: Plant response rating, Nutsedge, Yellow
Outline: as §1

[13] = test system: velvetleaf (Abutilon theophrasti); test: Test C preemergence; conditions: Abutilon theophrasti, pre-emergence, preemergence, scale 0 to 100, read-out: Plant response rating, Velvetleaf
Outline: as §1

[14] = test system: waterhemp (common waterhemp, Amaranthus rudis); test: Test C preemergence; conditions: Amaranthus tuberculatus, pre-emergence, preemergence, scale 0 to 100, read-out: Plant response rating, Waterhemp
Outline: as §1

[15] = test system: blackgrass (Alopecurus myosuroides); test: Test C preemergence; conditions: Alopecurus myosuroides, pre-emergence, 336 h, preemergence, scale 0 to 100, read-out: Plant response rating, Blackgrass
Outline: as §1

[16] = test system: galium (catchweed bedstraw, Galium aparine); test: Test C preemergence; conditions: Galium, pre-emergence, 336 h, preemergence, scale 0 to 100, read-out: Plant response rating, Galium
Outline: as §1

[17] = test system: chickweed (common chickweed, Stellaria media); test: Test C postemergence; conditions: Stellaria media, post-emergence, Postemergence, scale 0 to 100, read-out: Plant response rating, Chickweed
Outline: as §1

[18] = test system: giant foxtail (Setaria faberii); test: Test C postemergence; conditions: Setaria faberi, post-emergence, 336 h, Postemergence, scale 0 to 100, read-out: Plant response rating, Foxtail, Giant
Outline: as §1

[19] = test system: lambsquarters (Chenopodium album); test: Test C postemergence; conditions: Chenopodium album, post-emergence, 336 h, Postemergence, scale 0 to 100, read-out: Plant response rating, Lambsquarters
Outline: as §1

[20] = test system: yellow nutsedge (Cyperus esculentus); test: Test C postemergence; conditions: Cyperus, post-emergence, 336 h, Postemergence, scale 0 to 100, read-out: Plant response rating, Nutsedge, Yellow
Outline: as §1

[21] = test system: velvetleaf (Abutilon theophrasti); test: Test C postemergence; conditions: Abutilon theophrasti, post-emergence, Postemergence, scale 0 to 100, read-out: Plant response rating, Velvetleaf
Outline: as §1

[22] = test system: blackgrass (Alopecurus myosuroides); test: Test C postemergence; conditions: Alopecurus myosuroides, post-emergence, 336 h, Postemergence, scale 0 to 100, read-out: Plant response rating, Blackgrass
Outline: as §1

Question: Which plant injury at 31 g/ha ([1]; 31 g ai/ha) does the source give for `Fc1cccc(Oc2ncc(Cl)cn2)c1Oc1ncc(Br)cn1` [Compound 27, 5-bromo-2-[2-fluoro-6-[(5-chloro-2-pyrimidinyl)oxy]phenoxy]pyrimidine] here?
Answer: 40%

Question: What about the plant injury at 250 g/ha ([1]; 250 g ai/ha) of the same molecule?
Answer: 90%

Question: And the pest or weed control at 31 g/ha ([2]; 31 g ai/ha)?
Answer: 25%

Question: And the pest or weed control at 62 g/ha ([2]; 62 g ai/ha)?
Answer: 55%

Question: And the pest or weed control at 125 g/ha ([2]; 125 g ai/ha)?
Answer: 75%

Question: What about the pest or weed control at 31 g/ha ([3]; 31 g ai/ha) of the same molecule?
Answer: 100%

Question: And the pest or weed control at 62 g/ha ([3]; 62 g ai/ha)?
Answer: 100%

Question: What about the pest or weed control at 125 g/ha ([3]; 125 g ai/ha) of the same molecule?
Answer: 100%

Question: What about the pest or weed control at 31 g/ha ([4]; 31 g ai/ha) of the same molecule?
Answer: 10%

Question: What about the pest or weed control at 62 g/ha ([4]; 62 g ai/ha) of the same molecule?
Answer: 55%

Question: What about the pest or weed control at 125 g/ha ([4]; 125 g ai/ha) of the same molecule?
Answer: 80%

Question: And the pest or weed control at 250 g/ha ([4]; 250 g ai/ha)?
Answer: 95%

Question: And the pest or weed control at 31 g/ha ([5]; 31 g ai/ha)?
Answer: 80%

Question: What about the pest or weed control at 62 g/ha ([5]; 62 g ai/ha) of the same molecule?
Answer: 100%

Question: What about the pest or weed control at 125 g/ha ([5]; 125 g ai/ha) of the same molecule?
Answer: 100%

Question: What about the pest or weed control at 31 g/ha ([6]; 31 g ai/ha) of the same molecule?
Answer: 20%

Question: What about the pest or weed control at 62 g/ha ([6]; 62 g ai/ha) of the same molecule?
Answer: 60%

Question: What about the pest or weed control at 125 g/ha ([6]; 125 g ai/ha) of the same molecule?
Answer: 70%

Question: And the pest or weed control at 250 g/ha ([6]; 250 g ai/ha)?
Answer: 85%

Question: And the Corn plant response rating (crop injury, 0 = no effect, 100 = complete kill) at 31 g/ha ([7]; 31 g ai/ha)?
Answer: 10%

Question: What about the Corn plant response rating (crop injury, 0 = no effect, 100 = complete kill) at 62 g/ha ([7]; 62 g ai/ha) of the same molecule?
Answer: 45%

Question: What about the Corn plant response rating (crop injury, 0 = no effect, 100 = complete kill) at 125 g/ha ([7]; 125 g ai/ha) of the same molecule?
Answer: 60%

Question: And the plant injury at 31 g/ha ([8]; 31 g ai/ha)?
Answer: 0%

Question: What about the plant injury at 62 g/ha ([8]; 62 g ai/ha) of the same molecule?
Answer: 5%

Question: And the plant injury at 125 g/ha ([8]; 125 g ai/ha)?
Answer: 40%

Question: And the plant injury at 250 g/ha ([8]; 250 g ai/ha)?
Answer: 85%

Question: What about the pest or weed control at 31 g/ha ([9]; 31 g ai/ha) of the same molecule?
Answer: 98%

Question: And the pest or weed control at 62 g/ha ([9]; 62 g ai/ha)?
Answer: 98%

Question: And the pest or weed control at 125 g/ha ([9]; 125 g ai/ha)?
Answer: 100%

Question: And the pest or weed control at 31 g/ha ([10]; 31 g ai/ha)?
Answer: 5%

Question: And the pest or weed control at 62 g/ha ([10]; 62 g ai/ha)?
Answer: 40%

Question: What about the pest or weed control at 125 g/ha ([10]; 125 g ai/ha) of the same molecule?
Answer: 98%

Question: And the plant injury at 31 g/ha ([11]; 31 g ai/ha)?
Answer: 85%

Question: And the plant injury at 62 g/ha ([11]; 62 g ai/ha)?
Answer: 100%

Question: What about the plant injury at 125 g/ha ([11]; 125 g ai/ha) of the same molecule?
Answer: 100%

Question: And the plant injury at 250 g/ha ([11]; 250 g ai/ha)?
Answer: 100%

Question: What about the pest or weed control at 31 g/ha ([12]; 31 g ai/ha) of the same molecule?
Answer: 0%

Question: And the pest or weed control at 62 g/ha ([12]; 62 g ai/ha)?
Answer: 0%

Question: And the pest or weed control at 125 g/ha ([12]; 125 g ai/ha)?
Answer: 55%

Question: And the pest or weed control at 31 g/ha ([13]; 31 g ai/ha)?
Answer: 60%

Question: And the pest or weed control at 62 g/ha ([13]; 62 g ai/ha)?
Answer: 95%

Question: And the pest or weed control at 125 g/ha ([13]; 125 g ai/ha)?
Answer: 100%

Question: What about the pest or weed control at 250 g/ha ([13]; 250 g ai/ha) of the same molecule?
Answer: 100%

Question: And the pest or weed control at 31 g/ha ([14]; 31 g ai/ha)?
Answer: 100%

Question: What about the pest or weed control at 62 g/ha ([14]; 62 g ai/ha) of the same molecule?
Answer: 100%

Question: What about the pest or weed control at 125 g/ha ([14]; 125 g ai/ha) of the same molecule?
Answer: 100%

Question: And the pest or weed control at 250 g/ha ([14]; 250 g ai/ha)?
Answer: 100%

Question: What about the pest or weed control at 31 g/ha ([15]; 31 g ai/ha) of the same molecule?
Answer: 15%

Question: And the pest or weed control at 62 g/ha ([15]; 62 g ai/ha)?
Answer: 60%

Question: What about the pest or weed control at 125 g/ha ([15]; 125 g ai/ha) of the same molecule?
Answer: 90%

Question: What about the pest or weed control at 31 g/ha ([16]; 31 g ai/ha) of the same molecule?
Answer: 100%

Question: And the pest or weed control at 62 g/ha ([16]; 62 g ai/ha)?
Answer: 100%

Question: And the pest or weed control at 125 g/ha ([16]; 125 g ai/ha)?
Answer: 100%

Question: And the pest or weed control at 31 g/ha ([17]; 31 g ai/ha)?
Answer: 45%

Question: And the pest or weed control at 62 g/ha ([17]; 62 g ai/ha)?
Answer: 40%

Question: And the pest or weed control at 125 g/ha ([17]; 125 g ai/ha)?
Answer: 70%

Question: And the pest or weed control at 250 g/ha ([17]; 250 g ai/ha)?
Answer: 80%

Question: What about the pest or weed control at 31 g/ha ([18]; 31 g ai/ha) of the same molecule?
Answer: 0%

Question: And the pest or weed control at 62 g/ha ([18]; 62 g ai/ha)?
Answer: 5%

Question: What about the pest or weed control at 125 g/ha ([18]; 125 g ai/ha) of the same molecule?
Answer: 5%

Question: What about the pest or weed control at 250 g/ha ([18]; 250 g ai/ha) of the same molecule?
Answer: 10%

Question: What about the pest or weed control at 31 g/ha ([19]; 31 g ai/ha) of the same molecule?
Answer: 55%

Question: And the pest or weed control at 62 g/ha ([19]; 62 g ai/ha)?
Answer: 65%

Question: And the pest or weed control at 125 g/ha ([19]; 125 g ai/ha)?
Answer: 80%

Question: And the pest or weed control at 250 g/ha ([19]; 250 g ai/ha)?
Answer: 95%

Question: What about the pest or weed control at 31 g/ha ([20]; 31 g ai/ha) of the same molecule?
Answer: 0%

Question: What about the pest or weed control at 62 g/ha ([20]; 62 g ai/ha) of the same molecule?
Answer: 5%

Question: What about the pest or weed control at 125 g/ha ([20]; 125 g ai/ha) of the same molecule?
Answer: 10%

Question: And the pest or weed control at 250 g/ha ([20]; 250 g ai/ha)?
Answer: 10%

Question: And the pest or weed control at 31 g/ha ([21]; 31 g ai/ha)?
Answer: 15%

Question: What about the pest or weed control at 62 g/ha ([21]; 62 g ai/ha) of the same molecule?
Answer: 35%

Question: What about the pest or weed control at 125 g/ha ([21]; 125 g ai/ha) of the same molecule?
Answer: 65%

Question: And the pest or weed control at 250 g/ha ([21]; 250 g ai/ha)?
Answer: 65%

Question: What about the pest or weed control at 31 g/ha ([22]; 31 g ai/ha) of the same molecule?
Answer: 5%

Question: What about the pest or weed control at 62 g/ha ([22]; 62 g ai/ha) of the same molecule?
Answer: 5%

Question: And the pest or weed control at 125 g/ha ([22]; 125 g ai/ha)?
Answer: 5%

Question: What about the pest or weed control at 250 g/ha ([22]; 250 g ai/ha) of the same molecule?
Answer: 5%
